From US7435540B2 (IDEXX Corporation, priority 2002, dated 2008)

Tests used:
[1] = biological target: PrP^Sc (Mus musculus, UniProt P04925)
[2] = tested on: PrP^Sc
[3] = biological target: bovine PrP^Sc (Bos taurus, UniProt P10279)
[4] = biological target: mouse PrP^Sc (Mus musculus, UniProt P04925)
[5] = biological target: PrP^C (Mesocricetus auratus, UniProt P04273)
PrP^C, sequence (P04273 23-231 limits assumed): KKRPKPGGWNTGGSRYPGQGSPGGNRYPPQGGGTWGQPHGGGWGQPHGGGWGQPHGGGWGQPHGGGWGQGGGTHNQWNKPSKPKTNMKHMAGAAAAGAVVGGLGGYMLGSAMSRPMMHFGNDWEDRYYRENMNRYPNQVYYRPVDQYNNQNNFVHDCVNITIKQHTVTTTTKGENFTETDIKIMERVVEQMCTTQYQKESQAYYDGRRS

mouse PrP^Sc, sequence (P04925 23-230 limits assumed): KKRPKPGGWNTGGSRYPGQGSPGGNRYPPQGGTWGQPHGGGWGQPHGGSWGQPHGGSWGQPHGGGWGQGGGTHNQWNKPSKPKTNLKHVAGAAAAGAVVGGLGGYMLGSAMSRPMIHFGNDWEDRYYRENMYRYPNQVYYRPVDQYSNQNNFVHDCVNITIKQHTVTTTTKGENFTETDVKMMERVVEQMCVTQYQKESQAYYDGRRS
PrP^Sc (Mus musculus, UniProt P04925), sequence (P04925 23-230 limits assumed): as above
bovine PrP^Sc, sequence (P10279 25-241 limits assumed): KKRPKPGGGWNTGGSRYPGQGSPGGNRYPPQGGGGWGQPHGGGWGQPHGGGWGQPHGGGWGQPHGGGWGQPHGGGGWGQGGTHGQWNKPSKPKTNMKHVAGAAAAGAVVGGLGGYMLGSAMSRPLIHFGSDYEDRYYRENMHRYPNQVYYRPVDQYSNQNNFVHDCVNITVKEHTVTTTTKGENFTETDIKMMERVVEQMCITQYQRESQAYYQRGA

Row | Sequence | precipitation of PrP^Sc from scrapie mouse brain lysate [1] | PrP^Sc selective binding / capture [2] | competition with YYRRYYRYY beads for capture of mouse PrP^Sc [4] | further results
1 | AYRRYARYA | not with YAR or AYR repeats | – | – | –
2 | DEAYYKGWFAY | – | negative for PrP^Sc selective capture | – | –
3 | DRYYWYFDV | – | negative for PrP^Sc selective capture | – | –
4 | NHSTHNTGH | – | negative for PrP^Sc selective capture | – | –
5 | YARRAYRAY | not with YAR or AYR repeats | – | failed to compete | capture of PrP^Sc from BSE-positive bovine brain lysate [3]: failed to capture PrP^Sc
6 | YARYARYAR | – | shown to selectively bind PrP^Sc | – | –
7 | YRAARYRAY | – | shown to selectively bind PrP^Sc | – | –
8 | YSAASYASY | precipitation of PrP^Sc was observed | – | compete | –
9 | YYAAYYAYY | precipitation of PrP^Sc was observed | – | compete | –
10 | YYRRYYRYY | precipitation of PrP^Sc was observed | – | – | capture of PrP^Sc from BSE-positive bovine brain lysate [3]: captures PrP^Sc; precipitation of normal isoform PrP^C from normal hamster brain lysate [5]: not the normal isoform
